Laboratory results as given in patent US7498349B2, “Biaryl compounds having anti-infective activity” (Genesoft Pharmaceuticals, Inc., priority 2002, dated 2009).

What was measured:
B. cereus ATCC 11778 = assay: MIC, NCCLS broth microdilution assay; assay type: cell-based, Bacillus cereus; settings: B. cereus ATCC 11778
C. albicans ATCC 38247 = assay: MIC, antifungal assay; assay type: cell-based, Candida albicans; settings: C. albicans ATCC 38247
E. faecalis ATCC 29212 = assay: MIC, NCCLS broth microdilution assay; assay type: cell-based, Enterococcus faecalis; settings: E. faecalis ATCC 29212
S. aureus ATCC 13709 = assay: MIC, NCCLS broth microdilution assay; assay type: cell-based, Staphylococcus aureus; settings: S. aureus ATCC 13709, methicillin sensitive strain (MSSA)
S. aureus ATCC 27660 = assay: MIC, NCCLS broth microdilution assay; assay type: cell-based, Staphylococcus aureus; settings: S. aureus ATCC 27660, methicillin resistant strain (MRSA)
S. aureus ATCC 33591 = assay: MIC, NCCLS broth microdilution assay; assay type: cell-based, Staphylococcus aureus; settings: S. aureus ATCC 33591
[1] = test system: S. epidermidis ATCC 12228; assay: MIC, NCCLS broth microdilution assay; assay type: cell-based, Staphylococcus epidermidis
S. pneumoniae ATCC 49619 = assay: MIC, NCCLS broth microdilution assay; assay type: cell-based, Streptococcus pneumoniae; settings: S. pneumoniae ATCC 49619
E. coli ATCC 25922 = assay: MIC, NCCLS broth microdilution assay; assay type: cell-based, Escherichia coli; settings: E. coli ATCC 25922
[2] = test system: E. faecium (ATCC 51559, VRE); settings: E. faecium ATCC 51559, vancomycin resistant strain (VRE)
Excerpt: (§1) In vitro biological activity data were collected for a variety of microorganisms, including Bacillus cereus (ATCC 11778), Staphylococcus aureus (ATCC 33591; ATCC 27660, a methicillin resistant strain (MRSA); ATCC 13709, a methicillin sensitive strain (MSSA)), Escherichia coli (ATCC 25922), Enterococcus faecalis (ATCC 29212), Streptococcus pneumoniae (ATCC 49619; ATCC 51422, a penicillin resistant strain (PRSP)), Enterococcus faecium (ATCC 51559, a vancomycin resistant strain (VRE)), and Staphylococcus epidermidis (ATCC 12228). Additionally, antifungal activity data were collected for Candida albicans (ATCC 38247).
(§2) Compounds according to this invention were screened for their in vitro activities against selected species of bacteria and fungi. The minimal inhibition concentration (MIC) of these compounds was determined using the National Committee for Clinical Laboratory Standards (NCCLS) broth microdilution assay in microtiter plates, as set forth in: (1) the guidelines of the National Committee for Clinical Laboratory Standards (NCCLS) Document M7-A4 (NCCLS, 1997); (2) the guidelines of the National Committee for Clinical Laboratory Standards (NCCLS) Document M11-A4 (NCCLS, 1997); and (3) the guidelines and reference method of the National Committee for Clinical Laboratory Standards (NCCLS) Document M27 -T (NCCLS, 1995). For antifungal assays, the method recommended in Murray, PR., 1995 Manual of Clinical Microbiology (ASM Press, Washington, D.C.), was employed.
(§3) (MIC values are keyed in the same manner as Table B.)

[3] = test system: S. pneumoniae (ATCC 51422, PRSP); settings: S. pneumoniae ATCC 51422, penicillin resistant strain (PRSP)
Excerpt: as §1, §2, §3

With Cc1ccc2nc(-c3ccc(NC(=O)c4nsc(NCCCN)c4Cl)cc3)sc2c1 [Compound A-53] as the molecule, how does the “Minimum Inhibitory Concentration (MIC)” value (B. cereus ATCC 11778) read?
Its value is “+++ (MIC ≦ 4)”.

What about the “Minimum Inhibitory Concentration (MIC)” value (C. albicans ATCC 38247) of the same molecule?
Its value is greater than 32 µg/mL.

What about the “Minimum Inhibitory Concentration (MIC)” value (E. faecalis ATCC 29212) of the same molecule?
The value was “+++ (MIC ≦ 4)”.

What about the “Minimum Inhibitory Concentration (MIC)” value (S. aureus ATCC 13709) of the same molecule?
Its value is “+++ (MIC ≦ 4)”.

What about the “Minimum Inhibitory Concentration (MIC)” value (S. aureus ATCC 27660) of the same molecule?
The value was “+++ (MIC ≦ 4)”.

And the “Minimum Inhibitory Concentration (MIC)” value (S. aureus ATCC 33591)?
Its value is “+++ (MIC ≦ 4)”.

What about the “Minimum Inhibitory Concentration (MIC)” value [1] of the same molecule?
The value was “+++ (MIC ≦ 4)”.

And the “Minimum Inhibitory Concentration (MIC)” value (S. pneumoniae ATCC 49619)?
The value was greater than 32 µg/mL.

And the “Minimum Inhibitory Concentration (MIC)” value (E. coli ATCC 25922)?
Its value is greater than 32 µg/mL.

What about the “Minimum Inhibitory Concentration (MIC)” value [2] of the same molecule?
The value was “+++ (MIC ≦ 4)”.

And the “Minimum Inhibitory Concentration (MIC)” value [3]?
Its value is “+ (12 ≦ MIC ≦ 32)”.

Which results are given for NCCCCNc1snc(C(=O)Nc2ccc(-c3cc4ccccc4s3)nc2)c1Cl [Compound A-68]?
Minimum Inhibitory Concentration (MIC) (B. cereus ATCC 11778): +++ (MIC ≦ 4); Minimum Inhibitory Concentration (MIC) (C. albicans ATCC 38247): +++ (MIC ≦ 4); Minimum Inhibitory Concentration (MIC) (E. faecalis ATCC 29212): +++ (MIC ≦ 4); Minimum Inhibitory Concentration (MIC) (S. aureus ATCC 13709): +++ (MIC ≦ 4); Minimum Inhibitory Concentration (MIC) (S. aureus ATCC 27660): +++ (MIC ≦ 4); Minimum Inhibitory Concentration (MIC) (S. aureus ATCC 33591): +++ (MIC ≦ 4); Minimum Inhibitory Concentration (MIC) [1]: +++ (MIC ≦ 4); Minimum Inhibitory Concentration (MIC) (S. pneumoniae ATCC 49619): >32 µg/mL; Minimum Inhibitory Concentration (MIC) (E. coli ATCC 25922): >32 µg/mL; Minimum Inhibitory Concentration (MIC) [2]: +++ (MIC ≦ 4); Minimum Inhibitory Concentration (MIC) [3]: >32 µg/mL
